In patent US10988465B2, “CXCR4 inhibitors and uses thereof” (X4 Pharmaceuticals, Inc., priority 2016, dated 2021):

How the values were obtained:
[1] = target: T1, CXCR-4 transfected U87 cell line (U87.CXCR4) (Homo sapiens, UniProt P61073); assay: Intracellular CXCL-12-induced calcium mobilization assay (FLIPR); type: cell-based; details: U87.CXCR4 cells; CXCL-12 25-50 ng/mL; compound added 15 min before; read-out: IC50 CXCL-12 Ca^2+ flux U87.CXCR4+
T1 construct: expressed in transfected cells; host or cells: U87 (U87.CXCR4)
Description: Example 36: REGA Screening Assay
Intracellular CXCL-12-Induced Calcium Mobilization Assay
Intracellular calcium mobilization induced by chemokines or chemokine-derived peptides were evaluated using a calcium responsive fluorescent probe and a FLIPR system. The CXCR-4 transfected U87 cell line (U87.CXCR4) cells were seeded in gelatine-coated black-wall 96-well plates at 20,000 cells per well and incubated for 12 hours. Cells were then loaded with the fluorescent calcium probe Fluo-2 acetoxymethyl at 4 μM final concentration in assay buffer (Hanks' balanced salt solution with 20 mM HEPES buffer and 0.2% bovine serum albumin, pH 7.4) for 45 min at 37° C. The intracellular calcium mobilization induced by the CXCL-12 (25-50 ng/mL) was then measured at 37° C. by monitoring the fluorescence as a function of time in all the wells simultaneously using a fluorometric imaging plate reader (FLIPR Tetra, Molecular Devices).

[2] = target: T2, Jurkat cells expressing CXCR4 (Homo sapiens, UniProt P61073); assay: Chemokine (CXCL12-AF647) binding inhibition assay; details: CXCL12-AF647 25 ng/mL, read-out: IC50 CXCL-12 binding Jurkat
T2 construct: endogenous in cells; host or cells: Jurkat
Description: Chemokine (CXCL12-AF647) Binding Inhibition Assay
Jurkat cells expressing CXCR4 were washed once with assay buffer (Hanks' balanced salt solution with 20 mM HEPES buffer and 0.2% bovine serum albumin, pH 7.4) and then incubated for 15 min at room temperature with the test compounds diluted in assay buffer at dose-dependent concentrations. Subsequently, CXCL12-AF647 (25 ng/mL) was added to the compound-incubated cells. The cells were incubated for 30 min at room temperature. Thereafter, the cells were washed twice in assay buffer, fixed in 1% paraformaldehyde in PBS, and analyzed on the FL4 channel of a FACSCalibur flow cytometer equipped with a 635-nm red diode laser (Becton Dickinson, San Jose, Calif., USA).
The percentages of inhibition of CXCL12-AF647 binding were calculated according to the formula: [1−((MFI−MFINC)/(MFIPC−MFINC))]×100 where MFI is the mean fluorescence intensity of the cells incubated with CXCL12-AF647 in the presence of the inhibitor, MFINC is the mean fluorescence intensity measured in the negative control (i.e., autofluorescence of unlabeled cells), and MFIPC is the mean fluorescence intensity of the positive control (i.e., cells exposed to CXCL12-AF647 alone).

in vitro = details: human, Caco-2, pH 7.4
Description: Example 37: Caco-2 Permeability Assay
The goal of this assay was to evaluate the intestinal absorption potential of drug candidates using Caco-2 cell lines.
HBSS buffer with 0.3% DMSO and 5 μM LY: add 150 μL DMSO and 50 μL LY (5 mM) into 50 ml HBSS buffer (pH 7.4).
HBSS buffer with 0.1% DMSO and 5 μM LY: add 50 μL DMSO and 50 μL LY (5 mM) into 50 mL HBSS buffer (pH 7.4).
HBSS buffer with 0.3% DMSO: add 150 μL DMSO into 50 ml HBSS buffer (pH 7.4).
HBSS buffer with 0.1% DMSO: add 50 μL DMSO into 50 ml HBSS buffer (pH 7.4).
Prepare HBSS buffer with 0.4% DMSO: add 200 μL DMSO into 50 ml HBSS buffer (pH 7.4).
Prepare HBSS buffer with 0.4% DMSO and 5 μM LY: add 200 μL DMSO and 50 μL LY (5 mM) into 50 ml HBSS buffer (pH 7.4).
4. Measure TEER Take cell culture plate out of incubator, wash the cell monolayers with HBSS buffer, and then measure TEER values at Rm temperature. 5. Centrifuge Centrifuge the compound solution (from step 3) at 4000 rpm for 5 min before loading to donor chambers. 6. Dosing Add solution based on the volumes listed in the following table (make sure to take extra 100 μL of donor sample for T0 as Backup).
7. Apical LYT0 samples To determine LY concentration in the apical chember, take 100 μL sample from apical chambers into an opaque plate for LYT0. 8. Prewarm Prewarm apical and basolateral plates at 37° C. for about 5 min, then begin transport by placing the apical plate onto basolateral plate. 9. Incubation Keep the plates in incubator at 37° C. for 90 min. 10. Standard Curve preparation
11. Transport termination Separate the apical plate from the basolateral plate after 90-min incubation.
Receiver sample: 60 μL of receiver sample+60 μL ACN with IS (Osalmid or Imipramine)
Study details: Test concentration 10 μM
Test systems: Caco-2/HBSS solution
Incubation conditions: 0, 90 min at 37° C.
Sample size: Duplicates (n=2)
Bioanalytical method: LC-MS/MS
For Millicell-24 Cell Culture Plates: surface area of the membrane=0.7 cm^2, VA=0.8 mL (A-to-B) or 0.4 mL (B-to-A)
1. Papp values were calculated based on calculated concentrations.
The compound numbers correspond to the compound numbers in Table 1.

T1 sequence (P61073 whole entry): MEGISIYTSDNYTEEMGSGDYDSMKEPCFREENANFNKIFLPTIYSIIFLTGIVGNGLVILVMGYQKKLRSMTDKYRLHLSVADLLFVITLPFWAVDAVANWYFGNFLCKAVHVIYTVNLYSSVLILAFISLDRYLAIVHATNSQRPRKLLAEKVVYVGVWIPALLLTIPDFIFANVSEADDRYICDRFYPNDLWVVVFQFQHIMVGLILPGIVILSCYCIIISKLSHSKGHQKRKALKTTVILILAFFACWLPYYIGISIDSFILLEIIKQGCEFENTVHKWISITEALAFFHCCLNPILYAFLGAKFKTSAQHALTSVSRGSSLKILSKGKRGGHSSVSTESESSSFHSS
T2 sequence (P61073 whole entry): as above

IC50 [1] [nM]	IC50 [2] [nM]	Papp A→B at 90 min, 10 μM (in vitro) [×10⁻⁶ cm/s]	Papp B→A at 90 min, 10 μM (in vitro) [×10⁻⁶ cm/s]	efflux ratio at 90 min, 10 μM (in vitro)	Structure (SMILES)
0.01 to 100	0.01 to 100	0.1 to 10	10 to 30	0.1 to 10	Cc1cccnc1[C@@H]1CCC[C@H](c2nc3ccccc3n2CC2CCCN(C)C2)N1C (stereo partly drawn) [I-13, 2-((2R,6S)-1-methyl-6-(3-methylpyridin-2-yl)piperidin-2-yl)-1-((1-methylpiperidin-3-yl)methyl)-1H-benzo[d]imidazole]
0.01 to 100	0.01 to 100	10 to 30	10 to 30	0.1 to 10	Cc1cccnc1[C@@H]1CCC[C@H](c2nc3ccccc3n2CCCN2CCOCC2)N1C [I-18, 4-(3-(2-((2R,6S)-1-methyl-6-(3-methylpyridin-2-yl)piperidin-2-yl)-1H-benzo[d]imidazol-1-yl)-propyl)morpholine]
0.01 to 100	0.01 to 100	10 to 30	10 to 30	0.1 to 10	Cc1cccnc1[C@@H]1CCC[C@H](c2nc3ccccc3[nH]2)N1Cc1ccccc1-n1cccn1 [I-21, 2-((2R,6S)-1-(2-(1H-pyrazol-1-yl)benzyl)-6-(3-methylpyridin-2-yl)piperidin-2-yl)-1H-benzo[d]imidazole]
0.01 to 100	0.01 to 100	0.1 to 10	10 to 30	0.1 to 10	CCN1[C@@H](c2nc3ccccc3n2CC2CCN(C)CC2)CCC[C@H]1c1ncccc1C [I-25, 2-((2R,6S)-1-ethyl-6-(3-methylpyridin-2-yl)piperidin-2-yl)-1-((1-methylpiperidin-4-yl)methyl)-1H-benzo[d]imidazole]
0.01 to 100	0.01 to 100	10 to 30	10 to 30	0.1 to 10	Cc1cccnc1[C@@H]1CCC[C@H](c2nc3ccccc3[nH]2)N1CCc1ccccn1 [I-27, 2-((2R,6S)-6-(3-methylpyridin-2-yl)-1-(2-(pyridin-2-yl)ethyl)piperidin-2-yl)-1H-benzo[d]imidazole]
100 to 1000	0.01 to 100	0.1 to 10	0.1 to 10	0.1 to 10	CN1CCN(c2cccc3nc([C@H]4CCC[C@@H](c5ncccc5Br)N4C)[nH]c23)CC1 [I-28, 2-((2R,6S)-6-(3-bromopyridin-2-yl)-1-methylpiperidin-2-yl)-7-(4-methylpiperazin-1-yl)-1H-benzo[d]imidazole]
100 to 1000	0.01 to 100	10 to 30	10 to 30	0.1 to 10	CN1CCN(c2cccc3nc([C@H]4CCC[C@@H](c5ccccn5)N4C)[nH]c23)CC1 [I-29, 2-((2R,6S)-1-methyl-6-(pyridin-2-yl)piperidin-2-yl)-7-(4-methylpiperazin-1-yl)-1H-benzo[d]imidazole]
0.01 to 100	0.01 to 100	0.1 to 10	10 to 30	0.1 to 10	Cc1cccnc1[C@@H]1CCC[C@H](c2nc3cccc(C4CCN(C)CC4)c3[nH]2)N1C [I-34]

More lines, now with the values behind:

Structure (SMILES)	IC50 [1] [nM]	IC50 [2] [nM]	Papp A→B at 90 min, 10 μM (in vitro) [×10⁻⁶ cm/s]	Papp B→A at 90 min, 10 μM (in vitro) [×10⁻⁶ cm/s]	efflux ratio at 90 min, 10 μM (in vitro)
Cc1cccnc1[C@@H]1CCC[C@H](c2nc3ccccc3n2CC2CCNCC2)N1C [I-14, 2-((2R,6S)-1-methyl-6-(3-methylpyridin-2-yl)piperidin-2-yl)-1-(piperidin-4-ylmethyl)-1H-benzo[d]imidazole]	0.01 to 100	0.01 to 100	0.1 to 10	10 to 30	> 30
CNCCCn1c([C@H]2CCC[C@@H](c3ncccc3C)N2C)nc2ccccc21 [I-16, N-methyl-3-(2-((2R,6S)-1-methyl-6-(3-methylpyridin-2-yl)piperidin-2-yl)-1H-benzo[d]imidazol-1-yl)propan-1-amine]	0.01 to 100	0.01 to 100	0.1 to 10	10 to 30	> 30
Cc1cccnc1[C@@H]1CCC[C@H](c2nc3ccccc3n2CCCN2CCN(C)CC2)N1C [I-17, 2-((2R,6S)-1-methyl-6-(3-methylpyridin-2-yl)piperidin-2-yl)-1-(3-(4-methylpiperazin-1-yl)propyl)-1H-benzo[d]imidazole]	0.01 to 100	0.01 to 100	0.1 to 10	0.1 to 10	0.1 to 10
Cc1cccnc1[C@@H]1CCC[C@H](c2nc3ccccc3n2CCCNC2CCOCC2)N1C [I-19, N-(3-(2-((2R,6S)-1-methyl-6-(3-methylpyridin-2-yl)piperidin-2-yl)-1H-benzo[d]imidazol-1-yl)propyl)tetrahydro-2H-pyran-4-amine]	0.01 to 100	0.01 to 100	0.1 to 10	10 to 30	0.1 to 10
CCN1CCC(Cn2c([C@H]3CCC[C@@H](c4ncccc4C)N3C)nc3ccccc32)CC1 [I-22, 1-((1-ethylpiperidin-4-yl)methyl)-2-((2R,6S)-1-methyl-6-(3-methylpyridin-2-yl)piperidin-2-yl)-1H-benzo[d]imidazole]	0.01 to 100	0.01 to 100	0.1 to 10	10 to 30	0.1 to 10
Cc1cccnc1[C@@H]1CCC[C@H](c2nc3ccccc3n2CC2CCN(CC(F)(F)F)CC2)N1C [I-24, 2-((2R,6S)-1-methyl-6-(3-methylpyridin-2-yl)piperidin-2-yl)-1-((1-(2,2,2-trifluoroethyl)piperidin-4-yl)methyl)-1H-benzo[d]imidazole]	≥ 1000	100 to 1000	10 to 30	10 to 30	0.1 to 10
Cc1cccnc1[C@@H]1CCC[C@H](c2nc3ccccc3n2CC2CCN(C)CC2)N1CC(F)(F)F [I-26]	≥ 1000	≥ 1000	10 to 30	10 to 30	0.1 to 10
Cc1cccnc1[C@@H]1CCC[C@H](c2nc3ccccc3n2CCCN2CCC(F)(F)CC2)N1C [I-30, 1-(3-(4,4-difluoropiperidin-1-yl)propyl)-2-((2R,6S)-1-methyl-6-(3-methylpyridin-2-yl)piperidin-2-yl)-1H-benzo[d]imidazole]	0.01 to 100	0.01 to 100	0.1 to 10	0.1 to 10	0.1 to 10
Cc1cccnc1[C@@H]1CCC[C@H](c2nc3cccc(N4CCN(C)CC4)c3n2C)N1C [I-35]	0.01 to 100	0.01 to 100	0.1 to 10	0.1 to 10	0.1 to 10
